In patent publication US20220160714A1, “METHODS FOR TREATING COLORECTAL CANCER” (ICAHN SCHOOL OF MEDICINE AT MOUNT SINAI, priority 2019, published 2022):
Values joined by “and” are separate entries in the source; they are usually repeats but may differ in a detail not shown here. Identical values can stand only once. Counter-ions that a name gives are not always drawn.

Tested on: patient's personalized Drosophila model 006.1
Assay: Trametinib combination drug screen (Table 4B, experimental pupae numbers)
Type: in vivo
Method: After food was solidified, a mixture of experimental and control embryos (at a 1:2 ratio based on expected Mendelian ratios) were aliquoted into each drug/food tube (15 μl/tube). […] Embryos for drug screening were generated from the following cross in cages: w/Y; UAS-006.1; UAS ago^RNAi UAS-apc^RNAi/Stub-gal80-T Xw UAS-dicer2; +; byn-gal4 UAS-GFP tub-gal80^ts/TM6, Hu, Tb. Embryos were obtained from each cage for 4-5 consecutive days by providing daily a fresh apple juice plate with yeast paste. Egg lays were performed at 22° C. to minimize transgene expression during embryogenesis to prevent embryonic defects or lethality that could not potentially be rescued by drug feeding. After embryos were aliquoted, drug tubes were transferred to 25° C. to induce transgene expression. After 2 weeks, the number of surviving experimental pupae (EP) were counted in each tube.
DMSO and Trametinib alone served as controls. […] Statistical analysis was performed as described above.

[1] = drug screened in combination with trametinib
[2] = drug screened in combination with trametinib, mean of 8 replicates

Row | SMILES | EP (raw experimental pupae numbers), replicate 1 [1] | EP (raw experimental pupae numbers), replicate 2 [1] | EP (raw experimental pupae numbers), replicate 3 [1] | EP (raw experimental pupae numbers), replicate 4 [1] | EP (raw experimental pupae numbers), replicate 5 [1] | EP (raw experimental pupae numbers), replicate 6 [1] | EP (raw experimental pupae numbers), replicate 7 [1] | EP (raw experimental pupae numbers), replicate 8 [1] | EP mean [2] | also measured
1 | CC(=O)Nc1cccc(-n2c(=O)n(C3CC3)c(=O)c3c(Nc4ccc(I)cc4F)n(C)c(=O)c(C)c32)c1 [Trametinib alone] | – | – | – | – | – | – | – | – | – | EP mean (in vivo): 0.2917; EP (raw experimental pupae numbers), replicate 1 (trametinib alone): 0 (2×) and 1; EP (raw experimental pupae numbers), replicate 2 (trametinib alone): 0 (2×) and 1; EP (raw experimental pupae numbers), replicate 3 (trametinib alone): 0; EP (raw experimental pupae numbers), replicate 4 (trametinib alone): 0 (2×) and 1; EP (raw experimental pupae numbers), replicate 5 (trametinib alone): 1 (2×) and 0; EP (raw experimental pupae numbers), replicate 6 (trametinib alone): 1 (2×) and 0; EP (raw experimental pupae numbers), replicate 7 (trametinib alone): 0; EP (raw experimental pupae numbers), replicate 8 (trametinib alone): 0
2 | C[C@@H](c1ncncc1F)[C@](O)(Cn1cncn1)c1ccc(F)cc1F [Voriconazole] | 0 | 0 | 0 | 1 | 2 | 1 | 0 | 1 | 0.625 | –
3 | Cc1cnc(C(=O)O)c[n+]1[O-] [acipimox] | 0 | 1 | 0 | 1 | 1 | 1 | 0 | 4 | 1 | –
4 | NCCCNCCSP(=O)(O)O [amifostine] | 1 | 1 | 1 | 0 | 1 | 6 | 0 | 0 | 1.25 | –
5 | CCOC(=O)C1=C(COCCN)NC(C)=C(C(=O)OC)C1c1ccccc1Cl (centres unmarked) [amlodipine besylate] | 0 | 0 | 0 | 1 | 1 | 0 | 0 | 0 | – | –
6 | CCOc1cc([C@@H](CS(C)(=O)=O)N2C(=O)c3cccc(NC(C)=O)c3C2=O)ccc1OC [apremilast] | 0 | 0 | 2 | 0 | 3 | 0 | 0 | 0 | 0.625 | –
7 | O=C1CCc2ccc(OCCCCN3CCN(c4cccc(Cl)c4Cl)CC3)cc2N1 [aripiprazole] | 0 | 0 | 1 | 0 | 0 | 2 | 1 | 2 | 0.75 | –
8 | CN1[C@@H]2CC[C@H]1C[C@@H](OC(c1ccccc1)c1ccccc1)C2 [benztropine] | 0 | 0 | 4 | 2 | 3 | 1 | 0 | 3 | 1.652 | –
9 | O=c1ccc2ccc(OCCCCN3CCN(c4cccc5sccc45)CC3)cc2[nH]1 [brexpiprazole] | 0 | 0 | 1 | 1 | 2 | 0 | 3 | 1 | 1 | –
10 | CCC[C@@H]1CC(=O)N([C@@H](CC)C(N)=O)C1 [brivaracetam] | 0 | 0 | 2 | 0 | 2 | 1 | 1 | 1 | – | EP mean (in vivo): 0.875
11 | CCN(CC)CCNC(C(=O)OCCC(C)C)c1ccccc1 (centres unmarked) [camylofine dihydrochloride] | 0 | 0 | 1 | 0 | 6 | 1 | 0 | 0 | 1 | –
12 | CN(C)C(=O)N[C@H]1CC[C@H](CCN2CCN(c3cccc(Cl)c3Cl)CC2)CC1 [cariprazine hydrochloride] | 2 | 0 | 0 | 2 | 2 | 0 | 0 | 3 | 1.125 | –
13 | CN(C)CCCN1c2ccccc2Sc2ccc(Cl)cc21.Cl [chloipromazine HCl] | 0 | 1 | 1 | 1 | 1 | 2 | 0 | 3 | – | EP mean (in vivo): 1.125
14 | C[C@H](CCC(=O)O)[C@H]1CC[C@H]2[C@@H]3[C@H](O)C[C@@H]4C[C@H](O)CC[C@]4(C)[C@H]3C[C@H](O)[C@]12C [cholic acid] | – | – | – | – | – | – | – | – | – | EP (raw experimental pupae numbers), replicate 1 (in vivo): 1; EP (raw experimental pupae numbers), replicate 2 (in vivo): 0; EP (raw experimental pupae numbers), replicate 3 (in vivo): 2; EP (raw experimental pupae numbers), replicate 4 (in vivo): 1; EP (raw experimental pupae numbers), replicate 5 (in vivo): 1; EP (raw experimental pupae numbers), replicate 6 (in vivo): 1; EP (raw experimental pupae numbers), replicate 7 (in vivo): 3; EP (raw experimental pupae numbers), replicate 8 (in vivo): 2; EP mean (in vivo): 1.375
15 | CN1CCN(C2=Nc3cc(Cl)ccc3Nc3ccccc32)CC1 [clozapine] | 1 | 0 | 0 | 0 | 3 | 2 | 1 | 2 | 1.125 | –
16 | O=C(c1ccc(F)c(F)c1Nc1ccc(I)cc1F)N1CC(O)([C@@H]2CCCCN2)C1 [cobimetinib] | 1 | 1 | 2 | 0 | 1 | 0 | 0 | 0 | 0.625 | –
17 | CN1CCC(=C2c3ccccc3C=Cc3ccccc32)CC1 [cyproheptadine HCl] | 0 | 0 | 0 | 0 | 3 | 0 | 1 | 3 | 0.875 | –
18 | CCOc1ccc(Cc2cc([C@@H]3O[C@H](CO)[C@@H](O)[C@H](O)[C@H]3O)ccc2Cl)cc1 [dapagliflozin] | 0 | 1 | 1 | 1 | 3 | 5 | 2 | 0 | 1.625 | –
19 | OC[C@H]1O[C@@H](c2ccc(Cl)c(Cc3ccc(O[C@H]4CCOC4)cc3)c2)[C@H](O)[C@@H](O)[C@@H]1O [empagliflozin] | 4 | 0 | 0 | 2 | 5 | 2 | 1 | 2 | 2 | –
20 | NC(N)=Nc1nc(CSCCC(N)=NS(N)(=O)=O)cs1 [famotidine] | 0 | 0 | 0 | 0 | 1 | 2 | 0 | 2 | – | EP mean (in vivo): 0.625
